Series [1] relates to SH-SY5Y. Nature of the series: Neuroprotective activity in human SH-SY5Y cells assessed as reduction in H2O2-induced cell death at 1 uM preincubated for 1 hr followed by H2O2 addition and measured after 4 hrs by MTT assay relative to control. The series is classed as functional. For orientation: Tetrazolium assays rely on reduction of a dye to a coloured formazan, in cell work by metabolically active cells.

In series [2] the test system is SH-SY5Y. Nature of the series: Neuroprotective activity in human SH-SY5Y cells assessed as reduction in H2O2-induced cell death at 10 uM preincubated for 1 hr followed by H2O2 addition and measured after 4 hrs by MTT assay. Type of series: functional, cell-based.
Series [3] deals with SH-SY5Y. The series is described as follows: Neuroprotective activity in human SH-SY5Y cells assessed as reduction in H2O2-induced cell death at 100 uM preincubated for 1 hr followed by H2O2 addition and measured after 4 hrs by MTT assay. The series is classed as functional, cell-based.
In series [4] the test system is SH-SY5Y. Nature of the series: Cytotoxicity against human SH-SY5Y cells at 100 uM. The series is classed as cell-based.

Each structure is given as a SMILES string. The source made the active and inactive calls. The calls are words filed in the database; no cut-off is given here. Some results are limits rather than exact numbers.

As for `Cc1c(C)c2c(c(C)c1O)CCC(C)(C(=O)O)O2` (stereo not given), the outcome in the series with SH-SY5Y [1] was inactive.
In the case of `C/C=C(/C)C(=O)OCc1c(C(C)=O)c(O)c(OC)c2c1[C@@H](C)[C@@H](O)C=C2`, the outcome with SH-SY5Y [2] and with SH-SY5Y [3] was Active. Besides, the result in the series on SH-SY5Y [1] was inactive.
`COc1c2cccc(C)c2c(C)c2c(C)coc12`: the outcome in the series with SH-SY5Y [2] and in the series on SH-SY5Y [3] was Active. The Activity in the series with SH-SY5Y [1] is given as above 10%.
Turning to `COc1c2cccc(C)c2cc2c(C)coc12`, the outcome in the series with SH-SY5Y [2] and in the series with SH-SY5Y [3] was Active. Further, the result in the series with SH-SY5Y [1] was inactive.
`COc1c(O)c(C(C)=O)c(C)c2c1C=CC[C@@H]2C`: the result in the series on SH-SY5Y [2] and in the series on SH-SY5Y [3] was Active. In addition, in the series with SH-SY5Y [1], the result was inactive.
For the molecule `COC[C@H]1c2c(c(OC)c3occ(C)c3c2C)C=C[C@H]1O`, the outcome in the series on SH-SY5Y [2] and in the series on SH-SY5Y [3] was Active. Also, the Activity in the series on SH-SY5Y [1] was above 10%.
As for `Cc1cccc2c1[C@@](C)(O)c1c(C)coc1C2=O`, the result in the series on SH-SY5Y [2] and with SH-SY5Y [1] was Active. Moreover, the Activity entry in the series on SH-SY5Y [4] was “Toxic”.
Regarding `COc1c2c(c(C)c3c(C)coc13)[C@@H](C)[C@@H]1O[C@@H]1[C@H]2O`, the outcome in the series with SH-SY5Y [2] and in the series on SH-SY5Y [3] was Active. Besides, in the series with SH-SY5Y [1], the result was inactive.
Take `COc1c2c(c(C)c3c(C)coc13)[C@@H](C)[C@@H](O)C=C2`: the outcome in the series with SH-SY5Y [2] and in the series with SH-SY5Y [3] was Active. Besides, the Activity in the series with SH-SY5Y [1] is given as above 10%.
On to `COc1c(O)c(C(C)=O)c(C)c2c1C=C[C@H](O)[C@@H]2C`, for which the outcome with SH-SY5Y [2] and with SH-SY5Y [3] was Active. Besides, in the series with SH-SY5Y [1], the result was inactive.
On to `Cc1coc2c1[C@](C)(O)c1c(ccc(O)c1C)C2=O`, for which the outcome in the series on SH-SY5Y [2] and in the series on SH-SY5Y [1] was Active. In addition, in the series with SH-SY5Y [4], the Activity result was “Toxic”.
Take `CCOCc1c2c(C)cccc2c(OC)c2occ(C)c12`: the result in the series on SH-SY5Y [2] and in the series on SH-SY5Y [3] was Active. Besides, the result in the series on SH-SY5Y [1] was inactive.
Take `Cc1cccc2c1C(=O)c1c(C)coc1C2=O`: the result with SH-SY5Y [2] and in the series with SH-SY5Y [3] was Active. Besides, the outcome in the series on SH-SY5Y [1] was inactive.
Regarding `COc1c2c(c(C)c3c(C)coc13)[C@@H](C)[C@@H](O)CC2`, the result with SH-SY5Y [2] and with SH-SY5Y [3] was Active. Also, the outcome in the series with SH-SY5Y [1] was inactive.
In the case of `COC[C@@]1(O)c2c(C)cccc2C(=O)c2occ(C)c21`, the outcome with SH-SY5Y [1] was Active. Besides, the Activity result in the series with SH-SY5Y [4] was “Toxic”.
Turning to `C/C=C(/C)C(=O)OC[C@H]1c2c(c(OC)c3occ(C)c3c2C)C=C[C@H]1OC`, the outcome in the series on SH-SY5Y [2] and in the series on SH-SY5Y [3] was Active. Further, the Activity in the series on SH-SY5Y [1] is reported as above 10%.
For `C/C=C(/C)C(=O)OC[C@@H]1c2c(c(OC)c3occ(C)c3c2C)C=C[C@@H]1O`, the outcome in the series on SH-SY5Y [2] and in the series with SH-SY5Y [3] was Active. Further, in the series on SH-SY5Y [1], the Activity is recorded as above 10%.
Take `COc1c2c(c(C)c3c(C)coc13)[C@H](CO)[C@H](O)C=C2`: the result with SH-SY5Y [2] and in the series with SH-SY5Y [3] was Active. Moreover, the Activity in the series on SH-SY5Y [1] is listed as above 10%.
In the case of `COc1c(O)c(C(C)=O)c(C)c2c(C)cccc12`, the result in the series on SH-SY5Y [2] and with SH-SY5Y [3] was Active. Moreover, the result with SH-SY5Y [1] was inactive.
Consider `COc1c2cccc(C)c2c(CO)c2c(C)coc12`, for which the outcome with SH-SY5Y [2] and in the series with SH-SY5Y [3] was Active. Further, the result in the series on SH-SY5Y [1] was inactive.
On to `COCc1c2c(C)cccc2c(OC)c2occ(C)c12`, for which the outcome with SH-SY5Y [2] and with SH-SY5Y [3] was Active. Further, the Activity in the series with SH-SY5Y [1] was above 10%.

(Values after ChEMBL document CHEMBL4602671, “Modified Eremophilanes from Parasenecio hastatus and Their Neuroprotective Activities” (J Nat Prod, 2020).)
